Tested on: Phytophthora infestans
Type: in vivo, Phytophthora infestans on tomato
Settings: active compound application rate 5 ppm; protective spray, tomato; evaluation 3 days after inoculation

CON=C(C(=O)OC)c1ccccc1CO/N=C(\C)c1cccc(C(F)(F)F)c1 [Trifloxystrobin, 2-[α-{[(α-methyl-3-trifluoromethyl-benzyl)imino]-oxy}-o-tolyl]-glyoxylic acid methyl ester O-methyloxime]
% efficacy: 23%

Source: patent US20090170938A1 (priority 2005, published 2009)
